Experimental data: patent US8017612B2, “Piperazine compound and use thereof as a HCV polymerase inhibitor” (priority 2006, dated 2011)

Legend:
[1] = target: T1, HCV polymerase (NS5B) type 1a (Hepatitis C virus genotype 1a, UniProt P26664); test: Assay of enzyme (HCV polymerase) inhibitory activity, type 1a enzyme; type: biochemical, HCV type 1a (cloned from the blood of patients); conditions: HCV polymerase inhibitory activity (IC50), 1a, type 1a enzyme 1.5 μg/ml, 25° C., 60 min
T1 construct: made in house; host or cells: Escherichia coli (by the 'similar method' of the 1b enzyme)
Summary of the method: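 NS5B Δ47 C-term His6 (type 1a, 1.5 μg/ml); substrate RNA 5 μg/ml; ATP/GTP/CTP 50 μM, UTP 2 μM + [5,6-3H]UTP; Tris pH 7.5, MgCl2 5 mM; 25° C, 60 min. TCA/pyrophosphate stop, GF/B filter, scintillation. IC50 vs no-compound control.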

[2] = target: T2, HCV polymerase (NS5B) type 1b (Hepatitis C virus genotype 1b, UniProt P26663); test: Assay of enzyme (HCV polymerase) inhibitory activity, type 1b enzyme; type: biochemical, HCV BK strain (type 1b); conditions: HCV polymerase inhibitory activity (IC50), 1b, type 1b enzyme 0.5 μg/ml, 25° C., 60 min
T2 construct: a region encoding NS5B (J Virol 1991 March, 65(3), 1105-13, 544 amino acids after deletion of 47 amino acids on the C-terminal); 6xHis (C); made in house; host or cells: Escherichia coli
Summary of the method: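 Rxn: NS5B 1b (BK, ΔC47, His6) 0.5 μg/ml; substrate RNA 5 μg/ml; ATP/GTP/CTP 50 μM, UTP 2 μM + [5,6-3H]UTP; 20 mM Tris pH 7.5, 5 mM MgCl2, 50 mM NaCl, 1 mM EDTA/DTT. 25 °C, 60 min. Stop with TCA/pyrophosphate, filter, scintillation count; IC50 vs. untreated.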

| SMILES | IC50 [1] | IC50 [2] |
| --- | --- | --- |
| CC(=O)N1CCN(S(=O)(=O)C2CCCCC2)C(C(=O)NCc2ccc(C(F)(F)F)cc2)C1 (stereo not drawn) [Example 196, 4-acetyl-1-cyclohexanesulfonyl-piperazine-2-carboxylic acid 4-trifluoromethyl-benzylamide] | > 1000 nM | > 1000 nM |
| COc1ccc(CNC(=O)C2CN(C(C)=O)CCN2S(=O)(=O)c2ccc(C(C)C)cc2)c(OC)c1 (stereo not drawn) [Example 197, 4-acetyl-1-(4-isopropyl-benzenesulfonyl)-piperazine-2-carboxylic acid 2,4-dimethoxy-benzylamide] | > 1000 nM | > 1000 nM |
| COc1ccc(CNC(=O)C2CN(C(C)=O)CCN2S(=O)(=O)c2ccc(C(C)C)cc2)cc1OC (stereo not drawn) [Example 198, 4-acetyl-1-(4-isopropyl-benzenesulfonyl)-piperazine-2-carboxylic acid 3,4-dimethoxy-benzylamide] | > 1000 nM | > 1000 nM |
| CC(C)c1ccc(CNC(=O)[C@H]2CN(C(=O)NCCCC(=O)O)CCN2S(=O)(=O)c2ccc(C(F)(F)F)cc2)cc1 [Example 199, 4-{[(R)-3-(4-isopropyl-benzylcarbamoyl)-4-(4-trifluoromethyl-benzenesulfonyl)-piperazine-1-carbonyl]-amino}-butyric acid] | > 1000 nM | 100 to 1000 nM |
| CC(C)c1ccc(CNC(=O)[C@H]2CN(C(=O)Nc3ccc(N(C)C)cc3)CCN2S(=O)(=O)c2ccc(C(F)(F)F)cc2)cc1 [Example 200, (R)-4-(4-trifluoromethyl-benzenesulfonyl)-piperazine-1,3-dicarboxylic acid 1-[(4-dimethylamino-phenyl)-amide] 3-(4-isopropyl-benzylamide)] | > 1000 nM | 100 to 1000 nM |
| CC(C)c1ccc(CNC(=O)[C@H]2CN(C(=O)c3ccncc3)CCN2S(=O)(=O)c2ccc(C(F)(F)F)cc2)cc1 [Example 201, (R)-4-(pyridine-4-carbonyl)-1-(4-trifluoromethyl-benzenesulfonyl)-piperazine-2-carboxylic acid 4-isopropyl-benzylamide] | > 1000 nM | > 1000 nM |
| CCCN(C)c1ccc(CNC(=O)C2CN(C(C)=O)CCN2S(=O)(=O)c2ccc(C(C)C)cc2)cc1 (stereo not drawn) [Example 202, 4-acetyl-1-(4-isopropyl-benzenesulfonyl)-piperazine-2-carboxylic acid 4-(methyl-propyl-amino)-benzylamide] | > 1000 nM | 100 to 1000 nM |
| CC(=O)N1CCN(S(=O)(=O)c2ccc3c(c2)CCCC3)[C@@H](C(=O)NCc2ccc(C(C)C)cc2)C1 [Example 203, (R)-4-acetyl-1-(5,6,7,8-tetrahydro-naphthalene-2-sulfonyl)-piperazine-2-carboxylic acid 4-isopropyl-benzylamide] | 100 to 1000 nM | < 100 nM |
| CC(=O)N1CCN(S(=O)(=O)c2ccc3c(c2)CCC3)[C@@H](C(=O)NCc2ccc(C(C)C)cc2)C1 [Example 204, (R)-4-acetyl-1-(indane-5-sulfonyl)-piperazine-2-carboxylic acid 4-isopropyl-benzylamide] | 100 to 1000 nM | 100 to 1000 nM |
| CCCc1ccc(S(=O)(=O)N2CCN(C(C)=O)C[C@@H]2C(=O)NCc2ccc(C(C)C)cc2)cc1 [Example 205, (R)-4-acetyl-1-(4-propyl-benzenesulfonyl)-piperazine-2-carboxylic acid 4-isopropyl-benzylamide] | < 100 nM | < 100 nM |
| CC(=O)N1CCN(S(=O)(=O)c2ccc(-c3ccccc3)cc2)[C@@H](C(=O)NCc2ccc(C(C)C)cc2)C1 [Example 206, (R)-4-acetyl-1-(biphenyl-4-sulfonyl)-piperazine-2-carboxylic acid 4-isopropyl-benzylamide] | 100 to 1000 nM | 100 to 1000 nM |
| CC(=O)N1CCN(S(=O)(=O)c2ccc(OC(F)(F)F)cc2)[C@@H](C(=O)NCc2ccc(C(C)C)cc2)C1 [Example 207, (R)-4-acetyl-1-(4-trifluoromethoxy-benzenesulfonyl)-piperazine-2-carboxylic acid 4-isopropyl-benzylamide] | < 100 nM | < 100 nM |
